Assay type in all cases: in vivo
Assay [1] deals with Alopecurus myosuroides (ALOMY). Description: Post-emergence glasshouse herbicide test. Conditions: POST Application, 1000 g/h, after 13 days. The procedure:
(§1) Seeds of a variety of test species are sown in standard soil in pots (Alopecurus myosuroides (ALOMY), Setaria faberi (SETFA), Echinochloa crus-galli (ECHCG), Solanum nigrum (SOLNI), Amaranthus retoflexus (AMARE), Ipomoea hederacea (IPOHE)). After cultivation for one day (pre-emergence) or after 8 days cultivation (post-emergence) under controlled conditions in a glasshouse (at 24/16° C., day/night; 14 hours light; 65% humidity), the plants are sprayed with an aqueous spray solution derived from the formulation of the technical active ingredient in acetone/water (50:50) solution containing 0.5% Tween 20 (polyoxyethelyene sorbitan monolaurate, CAS RN 9005-64-5). Compounds ae applied at 1000 g/h. The test plants are then grown in a glasshouse under controlled conditions in a glasshouse (at 24/16° C., day/night; 14 hours light; 65% humidity) and watered twice daily. After 13 days for pre and post-emergence, the test is evaluated for the percentage damage caused to the plant. The biological activities are shown in the following table on a five point scale (5=80-100%; 4=60-79%; 3=40-59%; 2=20-39%; 1=0-19%).

In assay [2] the test system is Amaranthus retoflexus (AMARE). Description: Post-emergence glasshouse herbicide test. The conditions noted are these: POST Application, 1000 g/h, after 13 days. Here is the method: as §1
The subject of assay [3] is Echinochloa crus-galli (ECHCG). Description: Post-emergence glasshouse herbicide test. Conditions: POST Application, 1000 g/h, after 13 days. Here is the method: as §1
In assay [4] the test system is Ipomoea hederacea (IPOHE). Description: Post-emergence glasshouse herbicide test. Conditions: POST Application, 1000 g/h, after 13 days. The procedure:
as §1

In assay [5] the test system is Solanum nigrum (SOLNI). Description: Post-emergence glasshouse herbicide test. The conditions noted are these: POST Application, 1000 g/h, after 13 days. Here is the method:
as §1

The test system of assay [6] is Setaria faberi (SETFA). Description: Post-emergence glasshouse herbicide test. The conditions noted are these: POST Application, 1000 g/h, after 13 days. Here is the method:
as §1, with “Compounds ae applied at 1000 g/h.” left out

Assay [7] has as its system Alopecurus myosuroides (ALOMY). The assay is described as follows: Pre-emergence glasshouse herbicide test. The conditions noted are these: PRE Application, 1000 g/h, after 13 days. Here is the method: as §1
Assay [8] concerns Amaranthus retoflexus (AMARE). The assay is described as follows: Pre-emergence glasshouse herbicide test. The conditions noted are these: PRE Application, 1000 g/h, after 13 days. Here is the method: as §1
Assay [9] has as its system Echinochloa crus-galli (ECHCG). The assay is described as follows: Pre-emergence glasshouse herbicide test. The conditions noted are these: PRE Application, 1000 g/h, after 13 days. Here is the method:
as §1

Assay [10] concerns Ipomoea hederacea (IPOHE). The assay is described as follows: Pre-emergence glasshouse herbicide test. Conditions: PRE Application, 1000 g/h, after 13 days. The procedure:
as §1

The subject of assay [11] is Setaria faberi (SETFA). Description: Pre-emergence glasshouse herbicide test. The conditions noted are these: PRE Application, 1000 g/h, after 13 days. The procedure:
as §1

The subject of assay [12] is Solanum nigrum (SOLNI). Description: Pre-emergence glasshouse herbicide test. Conditions: PRE Application, 1000 g/h, after 13 days. Here is the method:
as §1

As to `Cn1nnnc1NC(=O)c1nc2ccccc2n(-c2ccccc2)c1=O` [Compound 5.004], the “percentage damage caused to the plant, ALOMY” value is recorded as 2 (2=20-39%) in [1] and 3 (3=40-59%) in [7]. The “percentage damage caused to the plant, AMARE” value in assay [2] and in assay [8] was 5 (5=80-100%) each time. The “percentage damage caused to the plant, ECHCG” value in assay [3] is 3 (3=40-59%); in assay [9], 5 (5=80-100%). The “percentage damage caused to the plant, IPOHE” value in [4] and in assay [10] was 5 (5=80-100%) each time. The “percentage damage caused to the plant, SOLNI” value in assay [5] and in assay [12] was 5 (5=80-100%) in each case. In addition, the “percentage damage caused to the plant, SETFA” value was 2 (2=20-39%) in assay [6] and 4 (4=60-79%) in assay [11].

With `Cn1nnnc1NC(=O)c1nc2ccccc2n(-c2ccsc2)c1=O` [Compound 5.005], the “percentage damage caused to the plant, ALOMY” value in [1] and in assay [7] was 2 (2=20-39%) in each case. Further, the “percentage damage caused to the plant, AMARE” value in assay [2] and in assay [8] was 5 (5=80-100%) in each case. The “percentage damage caused to the plant, ECHCG” value in assay [3] and in assay [9] was 5 (5=80-100%) in each case. In addition, the “percentage damage caused to the plant, IPOHE” value in assay [4] and in assay [10] was 5 (5=80-100%) throughout. Further, the “percentage damage caused to the plant, SOLNI” value in assay [5] and in assay [12] was 5 (5=80-100%) each time. Besides, the “percentage damage caused to the plant, SETFA” value is 5 (5=80-100%) in [6] and 3 (3=40-59%) in assay [11].

Turning to `Cn1nnnc1NC(=O)c1nc2ccc(C(F)(F)F)cc2n(-c2ccccc2)c1=O` [Compound 5.006], the “percentage damage caused to the plant, ALOMY” value in assay [1] and in assay [7] was 3 (3=40-59%) throughout. The “percentage damage caused to the plant, AMARE” value in assay [2] and in assay [8] was 5 (5=80-100%) throughout. In addition, the “percentage damage caused to the plant, ECHCG” value in assay [3] and in [9] was 4 (4=60-79%) in each case. In addition, the “percentage damage caused to the plant, IPOHE” value in assay [4] is listed as 5 (5=80-100%); in [10], 4 (4=60-79%). Also, the “percentage damage caused to the plant, SOLNI” value in assay [5] and in assay [12] was 5 (5=80-100%) each time. In addition, the “percentage damage caused to the plant, SETFA” value in assay [6] is 4 (4=60-79%); in assay [11] it was 3 (3=40-59%).

On to `Cn1nnnc1NC(=O)c1nc2cc(Cl)ccc2n(-c2ccccc2)c1=O` [Compound 5.007], for which the “percentage damage caused to the plant, ALOMY” value in assay [1] and in assay [7] was 2 (2=20-39%) in each case. Besides, the “percentage damage caused to the plant, AMARE” value in assay [2] and in [8] was 5 (5=80-100%) in each case. In addition, the “percentage damage caused to the plant, ECHCG” value in [3] and in [9] was 2 (2=20-39%) throughout. Moreover, the “percentage damage caused to the plant, IPOHE” value in [4] and in [10] was 5 (5=80-100%) throughout. Besides, the “percentage damage caused to the plant, SOLNI” value in assay [5] and in assay [12] was 5 (5=80-100%) in each case. For the same compound, the “percentage damage caused to the plant, SETFA” value in [6] and in assay [11] was 5 (5=80-100%) each time.

As to `Cn1nnnc1NC(=O)c1nc2ccc(Cl)cc2n(-c2ccccc2)c1=O` [Compound 5.008], the “percentage damage caused to the plant, ALOMY” value in assay [1] and in assay [7] was 2 (2=20-39%) each time. Also, the “percentage damage caused to the plant, AMARE” value in assay [2] and in [8] was 5 (5=80-100%) each time. Further, the “percentage damage caused to the plant, ECHCG” value in assay [3] and in assay [9] was 2 (2=20-39%) each time. For the same compound, the “percentage damage caused to the plant, IPOHE” value in assay [4] and in assay [10] was 5 (5=80-100%) throughout. Also, the “percentage damage caused to the plant, SOLNI” value in assay [5] and in [12] was 5 (5=80-100%) in each case. Moreover, the “percentage damage caused to the plant, SETFA” value in assay [6] and in [11] was 5 (5=80-100%) in each case.

For the compound `COc1ccc(-n2c(=O)c(C(=O)Nc3nnnn3C)nc3ccccc32)cc1` [Compound 5.009], the “percentage damage caused to the plant, ALOMY” value in [1] is reported as 1 (1=0-19%); in assay [7], 2 (2=20-39%). Besides, the “percentage damage caused to the plant, AMARE” value in [2] and in assay [8] was 5 (5=80-100%) throughout. Besides, the “percentage damage caused to the plant, ECHCG” value is listed as 4 (4=60-79%) in assay [3] and 5 (5=80-100%) in assay [9]. The “percentage damage caused to the plant, IPOHE” value is 3 (3=40-59%) in assay [4] and 5 (5=80-100%) in [10]. Besides, the “percentage damage caused to the plant, SOLNI” value in [5] and in assay [12] was 5 (5=80-100%) in each case. For the same compound, the figures for the “percentage damage caused to the plant, SETFA” value in assay [6] and in assay [11] were 2 (2=20-39%) and 1 (1=0-19%), respectively.

`Cc1cccc(-n2c(=O)c(C(=O)Nc3nnnn3C)nc3ccccc32)c1` [Compound 5.011]: the “percentage damage caused to the plant, ALOMY” value in assay [1] and in assay [7] was 2 (2=20-39%) each time. In addition, the “percentage damage caused to the plant, AMARE” value in assay [2] and in assay [8] was 5 (5=80-100%) each time. Further, the “percentage damage caused to the plant, ECHCG” value in [3] and in assay [9] was 4 (4=60-79%) each time. For the same compound, the “percentage damage caused to the plant, IPOHE” value in assay [4] and in assay [10] was 5 (5=80-100%) throughout. The “percentage damage caused to the plant, SOLNI” value in assay [5] and in assay [12] was 5 (5=80-100%) throughout. In addition, the figures for the “percentage damage caused to the plant, SETFA” value in assay [6] and in [11] were 5 (5=80-100%) and 4 (4=60-79%), respectively.

For `Cc1ccc(-n2c(=O)c(C(=O)Nc3nnnn3C)nc3ccccc32)cc1` [Compound 5.012], the “percentage damage caused to the plant, ALOMY” value in assay [1] and in assay [7] was 2 (2=20-39%) throughout. In addition, the “percentage damage caused to the plant, AMARE” value in [2] and in [8] was 5 (5=80-100%) throughout. Moreover, the “percentage damage caused to the plant, ECHCG” value in assay [3] and in assay [9] was 5 (5=80-100%) each time. Further, the “percentage damage caused to the plant, IPOHE” value in assay [4] and in assay [10] was 5 (5=80-100%) each time. Further, the “percentage damage caused to the plant, SOLNI” value in assay [5] and in [12] was 5 (5=80-100%) throughout. The “percentage damage caused to the plant, SETFA” value was 4 (4=60-79%) in assay [6] and 3 (3=40-59%) in assay [11].

Values taken from patent US9179678B2, “Substituted [1,2,4]triazoles and substituted tetrazoles as herbicides” (SYNGENTA LIMITED, priority 2012, dated 2015).
